Experimental data from patent publication US20230406885A1, “CYCLIC PEPTIDES FOR TRAPPING INTERLEUKIN-1 BETA” (MERCK SHARP & DOHME LLC, priority 2022, published 2023).
Where a SMILES comes first, the peptide text is derived from it. [ ]: non-standard residue; d: D form. Bip(4'-COOH) = N[C@@H](Cc1ccc(-c2ccc(C(=O)O)cc2)cc1)C(=O)O; 1Nal(3S-Me) = C[C@@H](c1cccc2ccccc12)[C@H](N)C(=O)O; Ala(indazol-1-yl) = N[C@@H](Cn1ncc2ccccc21)C(=O)O; Ala(indolin-1-yl) = N[C@@H](CN1CCc2ccccc21)C(=O)O; Phe(4-COOH) = N[C@@H](Cc1ccc(C(=O)O)cc1)C(=O)O; h3Pal(5-CN) = N#Cc1cncc(CC[C@H](N)C(=O)O)c1; Pro(4R-NH2) = N[C@H]1CN[C@H](C(=O)O)C1; 1Nal = N[C@@H](Cc1cccc2ccccc12)C(=O)O; Ala(4-THP) = N[C@@H](CC1CCOCC1)C(=O)O; hTyr = N[C@@H](CCc1ccc(O)cc1)C(=O)O; 4Pal = N[C@@H](Cc1ccncc1)C(=O)O; Orn = NCCC[C@H](N)C(=O)O; dNMeA = CN[C@H](C)C(=O)O; Dab = NCC[C@H](N)C(=O)O; Dap = NC[C@H](N)C(=O)O; Aib = CC(C)(N)C(=O)O

Target: T1, Recombinant human IL-1β (Homo sapiens, UniProt P01584)
T1 construct: purchased BioLegend 579404
Assay: IL-6 assay in MRC5 cells: inhibition of IL-1β induced IL-6 secretion (AlphaLISA)
Assay type: cell-based
Details: inhibition of IL-1β induced IL-6 secretion in MRC5 cells; IL-1β pre-incubated 1 hour with compound; read-out: MRC5 IC50
Protocol: Procedure for IL-6 Assay in MRC5 Cells
The inhibition of IL-1β induced IL-6 secretion was evaluated in MRC5 cells. Recombinant human IL-1β (BioLegend 579404) at 2×EC80 concentration was prepared in seeding medium, EMEM (ATCC 30-2003) with 0.025% BSA (Sigma A9576), 1× penicillin/streptomycin (Gibco 15070-063), 1×NEAA (Gibco 11140-050), 1× GlutaMax (Gibco 35050-061), and 1× sodium pyruvate (Gibco 11360-070). 20 μL of IL-1β was added to a 384-well collagen-coated plate (Corning 354664) and pre-incubated at ambient temperature for 1 hour with 200 nL of compound dispensed using an ECHO 555 liquid handler. Human lung fibroblast MRC5 cells (ATCC CCL-171) were added at a density of 3000 cells/20 μL per well. The cells were prepared by passaging three times in growth medium, EMEM (ATCC 30-2003) with 10% fetal bovine serum (Gibco 16140-071), 1× penicillin/streptomycin (Gibco 15070-063), 1×NEAA (Gibco 11140-050), 1× GlutaMax (Gibco 35050-061), and 1× sodium pyruvate (Gibco 11360-070) in collagen-coated T175 flasks (Greiner 661950) and harvested in seeding medium after 5 minutes of 0.25% trypsin-EDTA (Gibco 25200-056) digestion. The 384-well collagen-coated plate, containing a final volume of 40 μL, was incubated at 37° C., 5% CO2 overnight. 5 μL of the conditioned medium was transferred to a 384-well AlphaLISA plate (PerkinElmer 6005350) for detection of IL-6 using the human AlphaLISA IL-6 kit (PerkinElmer AL223F) as per the manufacturer's protocol. 20 μL of the acceptor bead/biotinylated antibody mix was added to the 384-well AlphaLISA plate and incubated for 1 hour at ambient temperature. The donor bead mix was protected from light and 25 μL was added to the plate and incubated for 30 minutes at ambient temperature. The AlphaLISA plate was read on an EnVision multimode plate reader (Perkin Elmer model 2104) using the AlphaScreen setting (laser exc at 680 nm and emis at 570 nm). Dose response curves and IC50 values were analyzed using a 4-parameter logistic equation in Spotfire software (Tibco, Palo Alto, CA).

T1 sequence (P01584 117-269): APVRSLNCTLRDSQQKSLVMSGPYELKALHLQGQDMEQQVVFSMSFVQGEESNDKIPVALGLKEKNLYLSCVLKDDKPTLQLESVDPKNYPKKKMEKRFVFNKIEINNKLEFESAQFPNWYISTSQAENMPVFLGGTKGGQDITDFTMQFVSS

IC50 | Structure (SMILES)
0.031 nM | C[C@@H]1C(=O)NCC(=O)N[C@@H](Cc2ccc(-c3ccc(C(=O)O)cc3)cc2)C(=O)N[C@@H](Cn2ncc3ccccc32)C(=O)N[C@@H](CN)C(=O)N[C@H](C)C(=O)N[C@@H](CCc2ccc(O)cc2)C(=O)N[C@@H](Cc2ccc(-c3ccc(C(=O)O)cc3)cc2)C(=O)N[C@@H](Cc2c[nH]c3ccccc23)C(=O)N[C@@H](Cc2ccc(C(=O)O)cc2)C(=O)NCC(=O)N2C[C@H](N)C[C@H]2C(=O)N[C@@H]([C@@H](C)c2cccc3ccccc23)C(=O)N[C@@H](CC(=O)O)C(=O)N1C [Example 13] (cyclo([Bip(4'-COOH)]W[Phe(4-COOH)]G[Pro(4R-NH2)][1Nal(3S-Me)]D[dNMeA]G[Bip(4'-COOH)][Ala(indazol-1-yl)][Dap][dA][hTyr]))
0.0297 nM | C[C@@H]1C(=O)NCC(=O)N[C@@H](Cc2ccc(-c3ccc(C(=O)O)cc3)cc2)C(=O)N[C@@H](CN2CCc3ccccc32)C(=O)N[C@@H](CN)C(=O)N[C@H](C)C(=O)N[C@@H](CCc2ccc(O)cc2)C(=O)N[C@@H](Cc2ccc(-c3ccc(C(=O)O)cc3)cc2)C(=O)N[C@@H](Cc2c[nH]c3ccccc23)C(=O)N[C@@H](Cc2ccc(C(=O)O)cc2)C(=O)NCC(=O)N2C[C@H](N)C[C@H]2C(=O)N[C@@H]([C@@H](C)c2cccc3ccccc23)C(=O)N[C@@H](CC(=O)O)C(=O)N1C [Example 14] (cyclo([Bip(4'-COOH)]W[Phe(4-COOH)]G[Pro(4R-NH2)][1Nal(3S-Me)]D[dNMeA]G[Bip(4'-COOH)][Ala(indolin-1-yl)][Dap][dA][hTyr]))
0.653 nM | C[C@@H]1C(=O)NCC(=O)N[C@@H](Cc2ccc(-c3ccc(C(=O)O)cc3)cc2)C(=O)N[C@@H](Cc2cccc3ccccc23)C(=O)N[C@@H](CCN)C(=O)NC(C)(C)C(=O)NCC(=O)N[C@@H](Cc2ccc(-c3ccc(C(=O)O)cc3)cc2)C(=O)N[C@@H](Cc2c[nH]c3ccccc23)C(=O)N[C@@H](Cc2ccc(C(=O)O)cc2)C(=O)NCC(=O)N2C[C@H](N)C[C@H]2C(=O)N[C@@H]([C@@H](C)c2cccc3ccccc23)C(=O)N[C@@H](CC(=O)O)C(=O)N1C [Example 15] (cyclo([Bip(4'-COOH)]W[Phe(4-COOH)]G[Pro(4R-NH2)][1Nal(3S-Me)]D[dNMeA]G[Bip(4'-COOH)][1Nal][Dab][Aib]G))
0.175 nM | C[C@@H]1C(=O)NCC(=O)N[C@@H](Cc2ccc(-c3ccc(C(=O)O)cc3)cc2)C(=O)N[C@@H](Cc2cccc3ccccc23)C(=O)N[C@@H](CCN)C(=O)NC(C)(C)C(=O)N[C@@H](CCc2ccc(O)cc2)C(=O)N[C@@H](Cc2ccc(-c3ccc(C(=O)O)cc3)cc2)C(=O)N[C@@H](Cc2c[nH]c3ccccc23)C(=O)N[C@@H](Cc2ccc(C(=O)O)cc2)C(=O)NCC(=O)N2C[C@H](N)C[C@H]2C(=O)N[C@@H]([C@@H](C)c2cccc3ccccc23)C(=O)N[C@@H](CC(=O)O)C(=O)N1C [Example 16] (cyclo([Bip(4'-COOH)]W[Phe(4-COOH)]G[Pro(4R-NH2)][1Nal(3S-Me)]D[dNMeA]G[Bip(4'-COOH)][1Nal][Dab][Aib][hTyr]))
0.222 nM | C[C@@H]1C(=O)NCC(=O)N[C@@H](Cc2ccc(-c3ccc(C(=O)O)cc3)cc2)C(=O)N[C@@H](Cc2cccc3ccccc23)C(=O)N[C@@H](CN)C(=O)NC(C)(C)C(=O)NCC(=O)N[C@@H](Cc2ccc(-c3ccc(C(=O)O)cc3)cc2)C(=O)N[C@@H](Cc2c[nH]c3ccccc23)C(=O)N[C@@H](Cc2ccc(C(=O)O)cc2)C(=O)NCC(=O)N2C[C@H](N)C[C@H]2C(=O)N[C@@H]([C@@H](C)c2cccc3ccccc23)C(=O)N[C@@H](CC(=O)O)C(=O)N1C [Example 17] (cyclo([Bip(4'-COOH)]W[Phe(4-COOH)]G[Pro(4R-NH2)][1Nal(3S-Me)]D[dNMeA]G[Bip(4'-COOH)][1Nal][Dap][Aib]G))
0.0885 nM | C[C@@H]1C(=O)NCC(=O)N[C@@H](Cc2ccc(-c3ccc(C(=O)O)cc3)cc2)C(=O)N[C@@H](Cc2cccc3ccccc23)C(=O)N[C@@H](CN)C(=O)NC(C)(C)C(=O)N[C@@H](CCc2cncc(C#N)c2)C(=O)N[C@@H](Cc2ccc(-c3ccc(C(=O)O)cc3)cc2)C(=O)N[C@@H](Cc2c[nH]c3ccccc23)C(=O)N[C@@H](Cc2ccc(C(=O)O)cc2)C(=O)NCC(=O)N2C[C@H](N)C[C@H]2C(=O)N[C@@H]([C@@H](C)c2cccc3ccccc23)C(=O)N[C@@H](CC(=O)O)C(=O)N1C [Example 18] (cyclo([Bip(4'-COOH)]W[Phe(4-COOH)]G[Pro(4R-NH2)][1Nal(3S-Me)]D[dNMeA]G[Bip(4'-COOH)][1Nal][Dap][Aib][h3Pal(5-CN)]))
0.118 nM | CC(C)C[C@@H]1NC(=O)[C@H](Cc2cccc3ccccc23)NC(=O)[C@H](Cc2ccc(-c3ccc(C(=O)O)cc3)cc2)NC(=O)CNC(=O)[C@@H](C)N(C)C(=O)[C@H](CC(=O)O)NC(=O)[C@H]([C@@H](C)c2cccc3ccccc23)NC(=O)[C@@H]2C[C@@H](N)CN2C(=O)CNC(=O)[C@H](Cc2ccc(C(=O)O)cc2)NC(=O)[C@H](Cc2c[nH]c3ccccc23)NC(=O)[C@H](Cc2ccc(-c3ccc(C(=O)O)cc3)cc2)NC(=O)CNC(=O)C(C)(C)NC1=O [Example 19] (cyclo([Bip(4'-COOH)]W[Phe(4-COOH)]G[Pro(4R-NH2)][1Nal(3S-Me)]D[dNMeA]G[Bip(4'-COOH)][1Nal]L[Aib]G))
0.44 nM | C[C@@H]1C(=O)NCC(=O)N[C@@H](Cc2ccc(-c3ccc(C(=O)O)cc3)cc2)C(=O)N[C@@H](Cc2cccc3ccccc23)C(=O)N[C@@H](CCCN)C(=O)NC(C)(C)C(=O)NCC(=O)N[C@@H](Cc2ccc(-c3ccc(C(=O)O)cc3)cc2)C(=O)N[C@@H](Cc2c[nH]c3ccccc23)C(=O)N[C@@H](Cc2ccc(C(=O)O)cc2)C(=O)NCC(=O)N2C[C@H](N)C[C@H]2C(=O)N[C@@H]([C@@H](C)c2cccc3ccccc23)C(=O)N[C@@H](CC(=O)O)C(=O)N1C [Example 20] (cyclo([Bip(4'-COOH)]W[Phe(4-COOH)]G[Pro(4R-NH2)][1Nal(3S-Me)]D[dNMeA]G[Bip(4'-COOH)][1Nal][Orn][Aib]G))
0.0234 nM | C[C@@H]1C(=O)NCC(=O)N[C@@H](Cc2ccc(-c3ccc(C(=O)O)cc3)cc2)C(=O)N[C@@H](Cc2ccncc2)C(=O)N[C@@H](CN)C(=O)N[C@H](C)C(=O)N[C@@H](CCc2cncc(C#N)c2)C(=O)N[C@@H](Cc2ccc(-c3ccc(C(=O)O)cc3)cc2)C(=O)N[C@@H](Cc2c[nH]c3ccccc23)C(=O)N[C@@H](Cc2ccc(C(=O)O)cc2)C(=O)NCC(=O)N2C[C@H](N)C[C@H]2C(=O)N[C@@H]([C@@H](C)c2cccc3ccccc23)C(=O)N[C@@H](CC(=O)O)C(=O)N1C [Example 21] (cyclo([Bip(4'-COOH)]W[Phe(4-COOH)]G[Pro(4R-NH2)][1Nal(3S-Me)]D[dNMeA]G[Bip(4'-COOH)][4Pal][Dap][dA][h3Pal(5-CN)]))
0.0325 nM | C[C@@H]1C(=O)NCC(=O)N[C@@H](Cc2ccc(-c3ccc(C(=O)O)cc3)cc2)C(=O)N[C@@H](Cc2ccncc2)C(=O)N[C@@H](CN)C(=O)N[C@H](C)C(=O)N[C@@H](CCc2ccc(O)cc2)C(=O)N[C@@H](Cc2ccc(-c3ccc(C(=O)O)cc3)cc2)C(=O)N[C@@H](Cc2c[nH]c3ccccc23)C(=O)N[C@@H](Cc2ccc(C(=O)O)cc2)C(=O)NCC(=O)N2C[C@H](N)C[C@H]2C(=O)N[C@@H]([C@@H](C)c2cccc3ccccc23)C(=O)N[C@@H](CC(=O)O)C(=O)N1C [Example 22] (cyclo([Bip(4'-COOH)]W[Phe(4-COOH)]G[Pro(4R-NH2)][1Nal(3S-Me)]D[dNMeA]G[Bip(4'-COOH)][4Pal][Dap][dA][hTyr]))
0.0112 nM | C[C@@H]1C(=O)NCC(=O)N[C@@H](Cc2ccc(-c3ccc(C(=O)O)cc3)cc2)C(=O)N[C@@H](CC2CCOCC2)C(=O)N[C@@H](CN)C(=O)N[C@H](C)C(=O)N[C@@H](CCc2cncc(C#N)c2)C(=O)N[C@@H](Cc2ccc(-c3ccc(C(=O)O)cc3)cc2)C(=O)N[C@@H](Cc2c[nH]c3ccccc23)C(=O)N[C@@H](Cc2ccc(C(=O)O)cc2)C(=O)NCC(=O)N2C[C@H](N)C[C@H]2C(=O)N[C@@H]([C@@H](C)c2cccc3ccccc23)C(=O)N[C@@H](CC(=O)O)C(=O)N1C [Example 23] (cyclo([Bip(4'-COOH)]W[Phe(4-COOH)]G[Pro(4R-NH2)][1Nal(3S-Me)]D[dNMeA]G[Bip(4'-COOH)][Ala(4-THP)][Dap][dA][h3Pal(5-CN)]))
0.0291 nM | C[C@@H]1C(=O)NCC(=O)N[C@@H](Cc2ccc(-c3ccc(C(=O)O)cc3)cc2)C(=O)N[C@@H](CC2CCOCC2)C(=O)N[C@@H](CN)C(=O)N[C@H](C)C(=O)N[C@@H](CCc2ccc(O)cc2)C(=O)N[C@@H](Cc2ccc(-c3ccc(C(=O)O)cc3)cc2)C(=O)N[C@@H](Cc2c[nH]c3ccccc23)C(=O)N[C@@H](Cc2ccc(C(=O)O)cc2)C(=O)NCC(=O)N2C[C@H](N)C[C@H]2C(=O)N[C@@H]([C@@H](C)c2cccc3ccccc23)C(=O)N[C@@H](CC(=O)O)C(=O)N1C [Example 24] (cyclo([Bip(4'-COOH)]W[Phe(4-COOH)]G[Pro(4R-NH2)][1Nal(3S-Me)]D[dNMeA]G[Bip(4'-COOH)][Ala(4-THP)][Dap][dA][hTyr]))
